Experimental data as given in patent US20050090428A1, “Porphyrins with virucidal activity” (priority 2002, published 2005).

Experiments:
[1] = tested on: MAGI cells; assay: Trypan blue exclusion cytotoxicity test; settings: four concentrations of porphyrin
Description: A standard trypan blue exclusion test (Strober, Trypan blue exclusion test of cell viability, p. A.3.3-A.3.4, in J. E. Coligan and A. M. Kruisbeek (ed.), Current protocols in immunology, Wiley-Greene, New York, N.Y., 1994) was used. Compounds at a concentration of 50 μg/ml in growth medium were added to a 96-well plate with MAGI cells. After 72 hr cells were detached by standard trypsin solution (0.25% trypsin-0.05% EDTA) and diluted 1:10 in growth medium. To test cell viability, 1 part of 0.4% trypan blue and 9 parts of diluted cells were mixed, incubated the mixture about 2 min at room temperature, and applied a drop of the trypan blue/cell mixture to a hemacytometer. Using a binocular microscope, the stained (nonviable) and unstained (viable) cells were then counted. The fraction of viable cells was calculated as the number of unstained cells in the wells treated with compound as a percentage of the number in control wells.
The selective index value was defined as the CC50/EC50 ratio.
A trypan blue exclusion test to determine possible toxicity of the test compounds. Compounds at a concentration of 50 μg/ml in growth medium were added to MAGI cells. […] After 72 hr, a trypan blue assay was used to compare cell viability in cells treated with compounds to untreated cells.

[2] = target: T1, HIV-1 Env protein (HXB2 Env) (Human immunodeficiency virus type 1 group M subtype B, UniProt P04578); assay type: cell-based
T1 construct: expressed in transfected cells; host or cells: 293T cells transfected with pIIIenv3-1 plus pCMVTAT; cocultured with 3T3 cells expressing CD4 and CXCR4

[3] = target: 89.6 Env (Human immunodeficiency virus type 1 group M subtype B, UniProt Q73372); assay type: cell-based, HIV-1
[4] = tested on: HSV-1(F) or HSV-2(G); assay: In vitro HSV inactivation, plaque assay on Vero cells; assay type: cell-based, herpes simplex virus; settings: room temperature, in the dark, up to 60 minutes
Description: Either HSV-1(F) or HSV-2(G) (10^7 pfu) was mixed with 1 ml of porphyrin at the concentration indicated in Dulbecco's modified Eagle's medium (DME) with 1% newborn calf serum. All assays were performed in duplicate. All tubes were wrapped in foil to keep out light, and ambient room light was reduced as much as was practicable. Virus and porphyrin were incubated together at room temperature for times up to 60 minutes (Table 2). Following incubation, 10 fold serial dilutions were performed in DME with 1% newborn serum, using tubes wrapped in foil. Virus was diluted 20,000 fold and plated on Vero cells. Following a 2 hour incubation with the cells, the inoculum was removed and cells were overlaid with DME with 1% newborn calf serum and 0.2% human gamma globulin. Cells were fixed and stained, and plaques counted, 2 days after infection.

[5] = tested on: HIV-1 IIIB; assay: Screening for virucidal activity against HIV-1 IIIB, MAGI cell assay
[6] = tested on: HIV-189.6; assay: Inactivation of HIV-1 89.6 infectivity; assay type: cell-based
[7] = tested on: SIVmac1A11; assay: Inactivation of SIVmac1A11 infectivity; assay type: cell-based, SIV
[8] = target: T2, binding of HIV-1 IIIB gp120 to CD4 (Human immunodeficiency virus type 1 group M subtype B, UniProt P04578); assay: gp120-CD4 binding assay (ELISA); settings: 1 hr at room temperature
T2 construct: The recombinant IIB gp120 protein (baculovirus-expressed) was obtained from Intracel; purchased Intracel (Cambridge, Mass.) for gp120; host or cells: baculovirus-expressed (gp120)
Description: To investigate the possible effect of porphyrin compounds on binding of HIV-1 IIIB gp120 to CD4, a gp120 CD4 binding assay was developed. The assay was developed as a modification of a capture gp120 ELISA kit (Intracel Corporation). Briefly, a 96-well plate was coated with soluble CD4 and 0.5 μg of HIV-1 IIIB gp120 per well was incubated in the presence or absence of test compounds for 1 hr at room temperature. After four washes with buffer to remove unbound proteins, the bound gp120 was detected by anti-gp120 peroxidase-conjugated antibodies and quantitated by the protocol provided by the manufacturer.

[9] = target: IIIB Env of HIV 1 (Human immunodeficiency virus type 1 group M subtype B, UniProt P03375); assay type: cell-based

89.6 Env, sequence (Q73372 32-719 limits assumed): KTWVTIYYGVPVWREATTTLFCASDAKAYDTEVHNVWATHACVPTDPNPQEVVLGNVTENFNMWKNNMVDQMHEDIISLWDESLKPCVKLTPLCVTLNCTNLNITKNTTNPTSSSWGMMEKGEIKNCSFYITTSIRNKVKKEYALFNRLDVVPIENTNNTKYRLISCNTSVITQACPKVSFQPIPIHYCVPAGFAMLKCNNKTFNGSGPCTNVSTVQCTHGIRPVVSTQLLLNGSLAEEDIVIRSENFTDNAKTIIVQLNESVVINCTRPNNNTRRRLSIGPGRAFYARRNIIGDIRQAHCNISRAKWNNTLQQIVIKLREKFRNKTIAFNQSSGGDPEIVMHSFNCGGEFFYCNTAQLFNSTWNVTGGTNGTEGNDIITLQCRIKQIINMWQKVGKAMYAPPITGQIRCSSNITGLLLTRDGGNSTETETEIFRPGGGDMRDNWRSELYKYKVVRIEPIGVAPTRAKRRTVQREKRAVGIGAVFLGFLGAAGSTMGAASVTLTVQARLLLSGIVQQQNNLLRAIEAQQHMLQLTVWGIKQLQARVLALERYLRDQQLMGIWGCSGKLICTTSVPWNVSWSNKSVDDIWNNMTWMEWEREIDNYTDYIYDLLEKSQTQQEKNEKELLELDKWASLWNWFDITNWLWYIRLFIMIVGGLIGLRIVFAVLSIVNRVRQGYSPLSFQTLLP
89.6 Env, sequence (Q73372 509-719 partner limits assumed): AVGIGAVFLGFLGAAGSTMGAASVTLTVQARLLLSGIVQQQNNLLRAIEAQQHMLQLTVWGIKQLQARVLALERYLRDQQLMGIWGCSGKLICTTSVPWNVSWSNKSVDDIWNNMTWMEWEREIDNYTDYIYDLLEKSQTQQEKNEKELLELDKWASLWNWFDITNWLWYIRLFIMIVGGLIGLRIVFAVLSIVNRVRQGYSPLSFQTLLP

| Molecule | CC50 (concentration that reduced the viability of cells by 50%) [1] [µg/mL] | Presence of nuclei in syncytia, pIIIenv X4, 6 h [2] | Presence of nuclei in syncytia, VV89.6 envt R5, 6 h [3] | Presence of nuclei in syncytia, VV89.6 envt R5, 23 h [3] | Presence of nuclei in syncytia, VV89.6 envt X4, 23 h [3] | inactivating HSVs [4] | selective index CC50/EC50 [5] | HIV-1 89.6 inactivated [6] [%] | SIVmac1A11 inactivated [7] [%] | inhibition of gp120/CD4 binding in words [8] | inhibition of HIV-induced cell fusion in words [2] | inhibition of HIV-induced cell fusion in words [9] | activity at low concentration ([5]; 0.5 μg/ml, HIV-1 IIIB, MAGI cells) | kinetics of inactivation of HIV-1 IIIB ([5]; 2 to 60 minutes) | activity against HIV in words ([5]; MAGI screening assay, HIV-1 IIIB) | infected cells remaining ([5]; after 2 min incubation) |
| --- | --- | --- | --- | --- | --- | --- | --- | --- | --- | --- | --- | --- | --- | --- | --- | --- |
| O=S(=O)(O)c1ccc(-c2c3nc(c(-c4ccc(S(=O)(=O)O)cc4)c4ccc([nH]4)c(-c4ccc(S(=O)(=O)O)cc4)c4nc(c(-c5ccccc5)c5ccc2[nH]5)C=C4)C=C3)cc1 [TPPS3, meso-tetraphenylporphyrin trisulfonate] | 50 | − | −/4+ | −/4+ (key: 4+: more than 50% of nuclei are in syncytia; 3+: 30 to 50% of nuclei are in syncytia; 2+: 30 to 10% of nuclei are in syncytia; +: less than 10% of nuclei are in syncytia; −: no syncytia were observed) | 1+/4+ (key: 4+: more than 50% of nuclei are in syncytia; 3+: 30 to 50% of nuclei are in syncytia; 2+: 30 to 10% of nuclei are in syncytia; +: less than 10% of nuclei are in syncytia; −: no syncytia were observed) | active | 10 |  |  |  |  |  |  |  |  |  |
| sulfonated 5,10,15,20-tetra-naphthalen-1-yl-porphyrin [TNapPS] | 75 | − |  |  |  |  |  | 76 | 88 | completely inhibit binding | complete inhibition | Complete inhibition | significant activity | inhibited viral growth almost completely | most active | approximately 1% |
